Consider 38 compounds from patent publication US6924301B1, “Composition for treating or preventing arrhythmia” (Shionogi & Co., Ltd., priority 1999, dated 2005).

Molecules are shown by their SMILES.

The first experiment has as its target T1, cPLA2 (Homo sapiens, UniProt P47712).
T1 sequence (P47712 1-749): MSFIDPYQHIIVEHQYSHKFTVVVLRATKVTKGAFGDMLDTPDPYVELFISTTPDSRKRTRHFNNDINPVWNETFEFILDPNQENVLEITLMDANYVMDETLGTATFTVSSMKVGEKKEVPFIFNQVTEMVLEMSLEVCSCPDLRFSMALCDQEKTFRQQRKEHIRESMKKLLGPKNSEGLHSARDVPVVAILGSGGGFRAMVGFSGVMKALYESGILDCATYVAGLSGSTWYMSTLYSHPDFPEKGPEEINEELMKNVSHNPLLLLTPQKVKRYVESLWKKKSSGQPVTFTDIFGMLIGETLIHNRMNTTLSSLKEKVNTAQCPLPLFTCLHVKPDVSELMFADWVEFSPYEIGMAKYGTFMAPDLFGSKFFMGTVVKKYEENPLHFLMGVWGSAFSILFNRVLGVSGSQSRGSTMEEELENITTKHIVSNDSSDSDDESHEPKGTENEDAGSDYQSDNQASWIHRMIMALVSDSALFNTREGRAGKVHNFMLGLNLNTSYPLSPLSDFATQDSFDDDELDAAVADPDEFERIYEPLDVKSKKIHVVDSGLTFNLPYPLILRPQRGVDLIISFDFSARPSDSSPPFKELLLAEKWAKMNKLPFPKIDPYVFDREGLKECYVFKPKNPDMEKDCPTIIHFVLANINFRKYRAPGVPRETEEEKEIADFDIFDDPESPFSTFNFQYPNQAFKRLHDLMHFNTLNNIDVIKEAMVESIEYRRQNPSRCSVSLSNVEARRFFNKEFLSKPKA
Kind of experiment: cPLA2 inhibitory activity. Type of experiment: biochemical. The following applies: 1-palmitoyl-2-[14C]-arachidonoyl-sn-glycero-3-phosphocholine liposomes, 15 min at 37° C. How it is done: The compounds of the present invention were tested for the cPLA2 inhibitory activity according to the method disclosed in […]. Roberts, […], and J. E. Putnam, J. Biol. Chem., 1991, 266, 5268-5272 as outlined below. […] The reaction mixture includes 50 mM HEPES buffer (pH 7.5), 1 mM calcium chloride, 150 mM sodium chloride, 0.1 mg/ml bovine serum albumin, and 1.7 mM dithiothreitol. To the reaction mixture was added the compound of the present invention and the substrate solution. The reaction was allowed to start by adding an enzyme and continued for 15 min at 37° C. The fatty acids released by the reaction were extracted by the method described in V. P. Dole, and H. Meinertz, J. Biol. Chem., 1960, 235, 2595-2599 and its radiation activity was measured on a liquid scintillation counter. Control was obtained by conducting the experiment in the same manner except that a compound of the present invention was not added.
Turning to `O=C1NC(=O)C(=Cc2ccc(C(=O)NCC3CC(SC(c4ccccc4)(c4ccccc4)c4cc(F)cc(F)c4)CN3C(=O)c3ccccc3C(=O)c3ccc(F)cc3F)cc2)S1` (centres unmarked) [Compound B-5], the IC50 (commonly the concentration at which inhibition is half-maximal) amounted to 2.7 nM.

`COc1ccc(C(SC2CC(CNC(=O)c3ccc(C=C4SC(=O)NC4=O)cc3)N(C(=O)c3ccccc3C(=O)c3ccc(F)cc3F)C2)(c2ccccc2)c2ccc(OC)cc2)cc1` (centres unmarked) [Compound B-3] registered an IC50 of 9 nM. `COc1ccc(C(=O)c2ccc(F)cc2F)c(C(=O)N2CC(N(CC(C)C)C(c3ccccc3)c3ccccc3)CC2CNC(=O)c2ccc(C=C3SC(=O)NC3=O)cc2)c1` (centres unmarked) [Compound A-10] came in with a half-maximal inhibitory concentration (IC50) of 29 nM. Compound `CC(C)CN(Cc1ccccc1-c1ccccc1)[C@@H]1C[C@@H](CNC(=O)/C=C/c2ccc(/C=C3\SC(=O)NC3=O)cc2)N(C(=O)c2ccccc2C(=O)c2ccc(F)cc2F)C1` [Compound A-14] came in with an IC50 of 1.8 nM. Same read-out and setting: then `CC(C)CN(C1CC(CNC(=O)c2ccc(C=C3SC(=O)NC3=O)cc2)N(C(=O)c2ccccc2C(=O)c2ccccc2F)C1)C(c1ccccc1)c1ccccc1` (centres unmarked) [Compound A-2], with 14 nM. As for `CC(C)CN(C(c1ccccc1)c1ccccc1)[C@@H]1C[C@@H](CNC(=O)c2ccc(/C=C3\SC(=O)NC3=O)cc2)N(C(=O)c2ccccc2C(=O)c2ccccc2)C1` [Compound A-1], inhibition was half-maximal at 33 nM (IC50).

The compound `CC(C)CN(C1CC(CNC(=O)c2ccc(C=C3SC(=O)NC3=O)s2)N(C(=O)c2ccccc2C(=O)c2ccc(F)cc2F)C1)C(c1ccccc1)c1ccccc1` (centres unmarked) [Compound A-12] displayed a 50% inhibitory concentration (IC50) of 2.1 nM. Compound `O=C1NC(=O)C(=Cc2ccc(C(=O)NCC3CC(SCc4c(-c5ccccc5)cccc4-c4ccccc4)CN3C(=O)c3ccccc3C(=O)c3ccc(F)cc3F)cc2)S1` (centres unmarked) [Compound B-2] registered a half-inhibitory concentration (IC50) of 20 nM.

`CC(C)CN(C1CC(CNC(=O)c2ccc(C=C3SC(=O)NC3=O)cc2)N(C(=O)c2cc(F)ccc2C(=O)c2ccc(F)cc2F)C1)C(c1ccccc1)c1ccccc1` (centres unmarked) [Compound A-9]: the IC50 stood at 2 nM.

`O=C1NC(=O)C(=Cc2ccc(C(=O)NCC3CC(SC(c4ccccc4)(c4cccc(F)c4)c4cccc(F)c4)CN3C(=O)c3ccccc3C(=O)c3ccc(F)cc3F)cc2)S1` (centres unmarked) [Compound B-4]: half-maximal inhibition (IC50) required 2.6 nM.

The compound `Cc1cc(C)cc(C(SC2CC(CNC(=O)c3ccc(C=C4SC(=O)NC4=O)cc3)N(C(=O)c3ccccc3C(=O)c3ccc(F)cc3F)C2)(c2ccccc2)c2ccccc2)c1` (centres unmarked) [Compound B-6] gave an IC50 of 1.3 nM. Compound `CC(C)CN(C1CC(CNC(=O)c2ccc(C=C3SC(=O)NC3=O)cc2)N(C(=O)c2ccc(F)cc2C(=O)c2ccc(F)cc2F)C1)C(c1ccccc1)c1ccccc1` (centres unmarked) [Compound A-8] returned an IC50 of 5 nM. `CC(C)CN(C1CC(CNC(=O)c2ccc(C=C3SC(=O)NC3=O)cc2)N(C(=O)c2ccccc2C(=O)c2c(F)cccc2F)C1)C(c1ccccc1)c1ccccc1` (centres unmarked) [Compound A-5] registered a half-maximal inhibitory concentration (IC50) of 7.4 nM. Consider `CC(C)CN(C1CC(CNC(=O)c2ccc(C=C3SC(=O)NC3=O)cc2)N(C(=O)c2c(F)cccc2C(=O)c2ccc(F)cc2F)C1)C(c1ccccc1)c1ccccc1` (centres unmarked) [Compound A-7], for which half-maximal inhibition (IC50) required 5.1 nM.

As for `O=C(/C=C/c1ccc(/C=C2\SC(=O)NC2=O)cc1)NC[C@@H]1C[C@@H](N(Cc2ccccc2)C(c2ccccc2)c2ccccc2)CN1C(=O)c1ccccc1C(=O)c1ccc(F)cc1F` [Compound A-17], the 50% inhibitory concentration (IC50) came to 3.7 nM. Compound `CC(C)CN(C1CC(CNC(=O)c2ccc(C=C3SC(=O)NC3=O)cc2)N(C(=O)c2cc(Cl)ccc2C(=O)c2ccc(F)cc2F)C1)C(c1ccccc1)c1ccccc1` (centres unmarked) [Compound A-11] yielded an IC50 of 5.2 nM. The IC50 values of the last two compounds are within 1.5-fold of each other.

For the compound `CC(C)CN(C1CC(CNC(=O)c2ccc(C=C3SC(=O)NC3=O)cc2)N(C(=O)c2ccccc2C(=O)c2cccc(F)c2)C1)C(c1ccccc1)c1ccccc1` (centres unmarked) [Compound A-3], 94 nM corresponded to half-maximal inhibition (IC50).

The same experiment, now with this note: 0.25 h; Table 10; same assay.
As to `O=C1NC(=O)/C(=C/c2ccc(C(=O)NC[C@@H]3C[C@@H](OCc4ccccc4-c4ccccc4)CN3C(=O)c3ccccc3C(=O)c3ccc(F)cc3F)s2)S1` [Compound C-1], the IC60 worked out at 24 nM. Consider `O=C(C=Cc1ccc(C=C2SC(=O)NC2=O)cc1)NCC1CC(SC(c2ccccc2)(c2ccccc2)c2ccc(F)cc2)CN1C(=O)c1ccccc1C(=O)c1ccc(F)cc1F` (centres unmarked) [Compound B-25], for which the IC60 was 0.43 nM.

In turn, `O=C(C=Cc1ccc(CC2SC(=O)NC2=O)cc1)NCC1CC(SC(c2ccccc2)(c2ccccc2)c2ccccc2)CN1C(=O)c1ccccc1C(=O)c1ccc(F)cc1F` (centres unmarked) [Compound B-20] came in with an IC60 of 1.4 nM. On the same count and under the same terms, then `Cc1cccc(C(SC2CC(CNC(=O)c3ccc(C=C4SC(=O)NC4=O)cc3)N(C(=O)c3ccccc3C(=O)c3ccc(F)cc3F)C2)(c2ccccc2)c2cccc(C)c2)c1` (centres unmarked) [Compound B-7], with 1.4 nM; and `Cc1ccc(C(SC2CC(CNC(=O)C=Cc3ccc(C=C4SC(=O)NC4=O)cc3)N(C(=O)c3ccccc3C(=O)c3ccc(F)cc3F)C2)(c2ccccc2)c2ccccc2)cc1` (centres unmarked) [Compound B-13], with 2 nM.

Compound `O=C(C=Cc1ccc(C=C2SC(=O)NC2=O)cc1)NCC1CC(SCc2c(-c3ccccc3)cccc2-c2ccccc2)CN1C(=O)c1ccccc1C(=O)c1ccc(F)cc1F` (centres unmarked) [Compound B-10] yielded an IC60 of 5.6 nM. Take `O=C(C=Cc1ccc(C=C2SC(=O)NC2=O)cc1)NCC1CC(SC(c2ccc(F)cc2)(c2ccc(F)cc2)c2ccc(F)cc2)CN1C(=O)c1ccccc1C(=O)c1ccc(F)cc1F` (centres unmarked) [Compound B-14]: the IC60 came to 1.2 nM. Same read-out and setting: the value for `Cc1cccc(C(SC2CC(CNC(=O)C=Cc3ccc(C=C4SC(=O)NC4=O)cc3)N(C(=O)c3ccccc3C(=O)c3ccc(F)cc3F)C2)(c2ccccc2)c2ccccc2)c1` (centres unmarked) [Compound B-16] was 1 nM; that for `O=C(C=Cc1ccc(C=C2SC(=O)NC2=O)cc1)NCC1CC(SC(c2ccccc2)(c2ccccc2)c2cccs2)CN1C(=O)c1ccccc1C(=O)c1ccc(F)cc1F` (centres unmarked) [Compound B-19] was 2.9 nM; that for `O=C(C=Cc1ccc(C=C2SC(=O)NC2=O)cc1)NCC1CC(SC(c2ccc(Cl)cc2)(c2ccc(Cl)cc2)c2ccc(Cl)cc2)CN1C(=O)c1ccccc1C(=O)c1ccc(F)cc1F` (centres unmarked) [Compound B-17] was 0.63 nM. The same measure, in the same setting: then `O=C(C=Cc1ccc(C=C2SC(=O)NC2=O)cc1)NCC1CC(SC(c2ccccc2)(c2ccccc2)c2ccccc2)CN1C(=O)c1ccccc1C(=O)c1ccc(F)cc1F` (centres unmarked) [Compound B-9], with 0.6 nM.

On to `COc1ccc(C(SC2CC(CNC(=O)C=Cc3ccc(C=C4SC(=O)NC4=O)cc3)N(C(=O)c3ccccc3C(=O)c3ccc(F)cc3F)C2)(c2ccccc2)c2ccc(OC)cc2)cc1` (centres unmarked) [Compound B-12], for which the IC60 is 2 nM. The same measure, in the same setting: then `CC(C)c1cccc(C(SC2CC(CNC(=O)C=Cc3ccc(C=C4SC(=O)NC4=O)cc3)N(C(=O)c3ccccc3C(=O)c3ccc(F)cc3F)C2)(c2ccccc2)c2ccccc2)c1` (centres unmarked) [Compound B-18], with 0.26 nM; and `O=C(C=Cc1ccc(C=C2SC(=O)NC2=O)cc1)NCC1CC(SC(c2ccccc2)(c2ccccc2)c2cccc(F)c2)CN1C(=O)c1ccccc1C(=O)c1ccc(F)cc1F` (centres unmarked) [Compound B-24], with 0.36 nM. On the same count and under the same terms, then `O=C(/C=C/c1ccc(/C=C2\SC(=O)NC2=O)cc1)NC[C@@H]1C[C@@H](Oc2ccccc2C(c2ccccc2)c2ccccc2)CN1C(=O)c1ccccc1C(=O)c1ccc(F)cc1F` [Compound C-2], with 3.8 nM; and `Cc1ccccc1C(SC1CC(CNC(=O)C=Cc2ccc(C=C3SC(=O)NC3=O)cc2)N(C(=O)c2ccccc2C(=O)c2ccc(F)cc2F)C1)(c1ccccc1)c1ccccc1` (centres unmarked) [Compound B-15], with 1.2 nM; and `Cc1cccc(C(SC2CC(CNC(=O)C=Cc3ccc(C=C4SC(=O)NC4=O)cc3)N(C(=O)c3ccccc3C(=O)c3ccc(F)cc3F)C2)(c2ccccc2)c2cccc(C)c2)c1` (centres unmarked) [Compound B-21], with 0.27 nM.

In the case of `O=C1NC(=O)C(Cc2ccc(C(=O)NCC3CC(SC(c4ccccc4)(c4ccccc4)c4ccccc4)CN3C(=O)c3ccccc3C(=O)c3ccc(F)cc3F)cc2)S1` (centres unmarked) [Compound B-8], the IC60 stood at 1.2 nM. Take `Cc1cc(C)cc(C(SC2CC(CNC(=O)C=Cc3ccc(C=C4SC(=O)NC4=O)cc3)N(C(=O)c3ccccc3C(=O)c3ccc(F)cc3F)C2)(c2ccccc2)c2ccccc2)c1` (centres unmarked) [Compound B-22]: the IC60 stood at 0.37 nM. Take `COc1ccc(C(SC2CC(CNC(=O)C=Cc3ccc(C=C4SC(=O)NC4=O)cc3)N(C(=O)c3ccccc3C(=O)c3ccc(F)cc3F)C2)(c2ccccc2)c2ccccc2)cc1` (centres unmarked) [Compound B-11]: the IC60 was 1.2 nM. For `O=C(C=Cc1ccc(C=C2SC(=O)NC2=O)cc1)NCC1CC(SC(c2ccccc2)(c2ccccc2)c2ccccc2F)CN1C(=O)c1ccccc1C(=O)c1ccc(F)cc1F` (centres unmarked) [Compound B-23], the IC60 amounted to 0.52 nM.
